Experimental data as given in ChEMBL document CHEMBL1201862, “PubChem BioAssay data set” (2004).
Blank lines part the entries; values can stand above or below the compound they belong to. Calls of active or inactive are those of the source.

Experiments:
[1] = biological target: T1, Heat shock factor protein 1 (Mus musculus, UniProt P38532); assay: HSF1 potentiators in luciferase reporter cells, confirmation, cell-based, NIH3T3, luminescence, dose retest (AID 435004); format: functional;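 also: stress induced by proteasome inhibitor MG132 added 30 min after compound; luciferase reporter driven by HSF1 response element in NIH3T3 cells; actives raise luminescence as potentiators of the MG132 stress response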
T1 sequence (P38532 whole entry): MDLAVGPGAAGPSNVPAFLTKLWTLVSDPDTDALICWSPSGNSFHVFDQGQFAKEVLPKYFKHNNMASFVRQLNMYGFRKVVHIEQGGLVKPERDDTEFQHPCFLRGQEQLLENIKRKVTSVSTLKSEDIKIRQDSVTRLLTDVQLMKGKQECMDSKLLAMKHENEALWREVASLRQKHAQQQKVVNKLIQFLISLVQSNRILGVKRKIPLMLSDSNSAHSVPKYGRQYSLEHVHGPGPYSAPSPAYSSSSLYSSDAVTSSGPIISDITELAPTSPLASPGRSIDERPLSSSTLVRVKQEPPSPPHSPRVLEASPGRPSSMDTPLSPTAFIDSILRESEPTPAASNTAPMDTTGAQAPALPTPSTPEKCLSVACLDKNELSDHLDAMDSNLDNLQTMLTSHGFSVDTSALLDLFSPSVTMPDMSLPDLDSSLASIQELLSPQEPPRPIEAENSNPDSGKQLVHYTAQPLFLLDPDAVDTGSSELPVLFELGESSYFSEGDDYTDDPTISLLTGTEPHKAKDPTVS

[2] = human group III sPLA2 inhibitors, dose response, biochemical, QFRET, IC50 (AID 743457);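 also: green fluorescence rise as the enzyme cleaves BODIPY PC-A2 in liposomes; potency for inhibition of the enzyme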
[3] = biological target: T2, Corticotropin-releasing factor receptor 2/Corticotropin-releasing factor-binding protein (Homo sapiens, UniProt P24387+Q13324); assay: Dose Response confirmation of uHTS hits for small molecule antagonists of the CRF-binding protein and CRF-R2 receptor complex.; format: functional; conditions: read-out: IC50_Mean
T2 sequence (Q13324 whole entry): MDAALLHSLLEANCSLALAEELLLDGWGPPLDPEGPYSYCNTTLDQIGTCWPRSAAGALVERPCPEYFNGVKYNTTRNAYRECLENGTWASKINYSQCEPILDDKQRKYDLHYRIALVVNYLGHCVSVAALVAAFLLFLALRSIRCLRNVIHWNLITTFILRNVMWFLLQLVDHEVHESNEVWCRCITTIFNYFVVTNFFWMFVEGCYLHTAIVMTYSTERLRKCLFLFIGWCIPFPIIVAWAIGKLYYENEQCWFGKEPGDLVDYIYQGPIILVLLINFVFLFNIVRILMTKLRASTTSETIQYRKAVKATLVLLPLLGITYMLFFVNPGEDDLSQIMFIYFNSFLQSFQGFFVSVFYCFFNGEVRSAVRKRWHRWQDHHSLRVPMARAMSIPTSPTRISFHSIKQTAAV
T2 sequence (P24387 whole entry): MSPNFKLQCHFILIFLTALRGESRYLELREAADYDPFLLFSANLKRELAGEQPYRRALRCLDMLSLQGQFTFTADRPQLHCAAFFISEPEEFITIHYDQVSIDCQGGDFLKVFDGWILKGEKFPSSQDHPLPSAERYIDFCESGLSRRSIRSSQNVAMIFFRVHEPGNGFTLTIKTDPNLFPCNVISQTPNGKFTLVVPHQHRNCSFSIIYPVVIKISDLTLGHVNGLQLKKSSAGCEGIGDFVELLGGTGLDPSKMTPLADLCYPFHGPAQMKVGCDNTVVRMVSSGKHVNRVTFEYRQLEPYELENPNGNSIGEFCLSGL

[4] = biological target: T2, Corticotropin-releasing factor receptor 2/Corticotropin-releasing factor-binding protein; assay: activators of CRF receptor 2 with binding protein – uHTS hits, confirmation (AID 602473); format: functional; conditions: read-out: EC50_Mean
[5] = biological target: T3, DNA repair protein RAD52 homolog (Homo sapiens, UniProt P43351); format: functional, biochemical
T3 sequence (P43351 whole entry): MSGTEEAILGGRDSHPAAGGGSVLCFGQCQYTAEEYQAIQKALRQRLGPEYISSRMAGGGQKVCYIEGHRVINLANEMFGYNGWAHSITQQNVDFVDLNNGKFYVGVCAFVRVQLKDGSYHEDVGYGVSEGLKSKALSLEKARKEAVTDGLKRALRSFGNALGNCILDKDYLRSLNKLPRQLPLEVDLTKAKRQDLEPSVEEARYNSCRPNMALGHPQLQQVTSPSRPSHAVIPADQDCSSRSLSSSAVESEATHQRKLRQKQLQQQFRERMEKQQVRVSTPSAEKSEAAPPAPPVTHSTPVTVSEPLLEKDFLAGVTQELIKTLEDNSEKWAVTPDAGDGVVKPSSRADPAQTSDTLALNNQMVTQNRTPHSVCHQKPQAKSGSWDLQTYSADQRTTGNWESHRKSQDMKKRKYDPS

cells [6] = format: functional, cell-based
[7] = biological target: T4, Trace amine-associated receptor 1 (Homo sapiens, UniProt Q96RJ0); assay: Fluorescence-based cell-based high throughput dose response assay to identify agonists of the human trace amine associated receptor 1 (TAAR1).; format: functional
T4 sequence (Q96RJ0 whole entry): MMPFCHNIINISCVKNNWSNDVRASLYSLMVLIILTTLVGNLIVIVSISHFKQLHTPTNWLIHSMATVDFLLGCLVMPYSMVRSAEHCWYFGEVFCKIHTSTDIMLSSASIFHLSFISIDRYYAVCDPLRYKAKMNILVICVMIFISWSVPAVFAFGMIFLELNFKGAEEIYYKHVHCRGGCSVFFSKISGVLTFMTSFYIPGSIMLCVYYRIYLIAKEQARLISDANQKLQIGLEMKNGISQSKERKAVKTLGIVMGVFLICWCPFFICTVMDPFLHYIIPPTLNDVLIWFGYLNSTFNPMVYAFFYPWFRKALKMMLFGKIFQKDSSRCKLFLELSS

[8] = biological target: T4, Trace amine-associated receptor 1; assay: Counterscreen for agonists of the human trace amine associated receptor 1 (hTAAR1): Fluorescence-based cell-based high throughput dose response assay to identify hTAAR1 agonist that also desensitize TAAR1 receptor response.; format: functional
cells [9] = format: functional, cell-based; remark: listed apart in the source
[10] = inhibitors of Vif binding to APOBEC3G peptide, primary screen, biochemical, TR-FRET, GST-Vif 1-94, biotin-A3G peptide, dose response retest (AID 1117319); format: functional;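 also: TR-FRET signal of purified GST-Vif binding a biotinylated A3G peptide; inhibitors lower the FRET signal by blocking Vif and A3G binding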
[11] = biological target: T5, RNA-editing ligase 1, mitochondrial (Trypanosoma brucei brucei, UniProt P86926); assay: TbREL1 ligase inhibitors, dose response, biochemical, fluorescence, Trypanosoma brucei (AID 1117295); format: functional
T5 sequence (P86926 whole entry): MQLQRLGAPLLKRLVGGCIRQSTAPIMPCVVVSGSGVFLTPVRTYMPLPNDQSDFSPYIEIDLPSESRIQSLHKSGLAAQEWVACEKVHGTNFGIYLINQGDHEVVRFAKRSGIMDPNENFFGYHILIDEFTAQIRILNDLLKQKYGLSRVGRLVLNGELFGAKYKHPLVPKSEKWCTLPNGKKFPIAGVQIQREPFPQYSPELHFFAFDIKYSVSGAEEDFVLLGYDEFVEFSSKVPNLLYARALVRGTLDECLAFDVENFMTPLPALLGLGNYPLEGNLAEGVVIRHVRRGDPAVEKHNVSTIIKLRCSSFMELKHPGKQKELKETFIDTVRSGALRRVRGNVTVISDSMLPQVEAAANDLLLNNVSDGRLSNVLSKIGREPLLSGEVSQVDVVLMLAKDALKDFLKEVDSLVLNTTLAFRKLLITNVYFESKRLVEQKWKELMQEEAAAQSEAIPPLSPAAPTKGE

Paired box protein Pax-8 = Paired box protein Pax-8 (Homo sapiens, UniProt Q06710); assay: inhibitors of PAX8-driven TPO luciferase reporter, dose response, RMG-I cells, cherry-pick (AID 687027); format: functional, cell-based;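 also: luciferase reporter driven by Pax8 target thyroperoxidase promoter measured by SteadyGlo luminescence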
Chain of Paired box protein Pax-8 (Q06710 whole entry): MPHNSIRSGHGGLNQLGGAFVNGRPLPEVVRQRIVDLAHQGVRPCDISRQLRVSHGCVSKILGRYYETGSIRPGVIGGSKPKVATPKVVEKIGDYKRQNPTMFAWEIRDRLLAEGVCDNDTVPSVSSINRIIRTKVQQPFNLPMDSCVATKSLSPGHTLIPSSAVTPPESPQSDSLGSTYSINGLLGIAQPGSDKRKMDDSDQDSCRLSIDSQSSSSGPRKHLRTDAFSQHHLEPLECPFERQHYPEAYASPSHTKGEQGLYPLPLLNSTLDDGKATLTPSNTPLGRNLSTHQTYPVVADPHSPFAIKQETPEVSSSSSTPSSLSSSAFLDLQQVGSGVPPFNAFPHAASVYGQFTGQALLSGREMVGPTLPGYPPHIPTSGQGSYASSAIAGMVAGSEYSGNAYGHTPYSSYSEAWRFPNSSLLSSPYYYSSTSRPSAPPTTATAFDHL

[12] = IGROV1 ovarian cancer cell cytotoxicity, dose response, PAX8 inhibitor project, plate reader, dry powder samples (AID 743043); format: functional, cell-based; conditions: IGROV-1
[13] = ADAM10 inhibitors, peptide cleavage, dose response, biochemical, QFRET (AID 743254);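 also: ADAM10 enzyme with the DM2 quenched FRET peptide as substrate; EDANS fluorescence gain as the protease cuts the substrate; inhibitor potency against ADAM10 proteolytic activity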
[14] = biological target: T6, Disintegrin and metalloproteinase domain-containing protein 17 (Homo sapiens, UniProt P78536); assay: exosite inhibitors of ADAM17, dose response, biochemical (AID 743260)
T6 sequence (P78536 whole entry, the tested form may be a part): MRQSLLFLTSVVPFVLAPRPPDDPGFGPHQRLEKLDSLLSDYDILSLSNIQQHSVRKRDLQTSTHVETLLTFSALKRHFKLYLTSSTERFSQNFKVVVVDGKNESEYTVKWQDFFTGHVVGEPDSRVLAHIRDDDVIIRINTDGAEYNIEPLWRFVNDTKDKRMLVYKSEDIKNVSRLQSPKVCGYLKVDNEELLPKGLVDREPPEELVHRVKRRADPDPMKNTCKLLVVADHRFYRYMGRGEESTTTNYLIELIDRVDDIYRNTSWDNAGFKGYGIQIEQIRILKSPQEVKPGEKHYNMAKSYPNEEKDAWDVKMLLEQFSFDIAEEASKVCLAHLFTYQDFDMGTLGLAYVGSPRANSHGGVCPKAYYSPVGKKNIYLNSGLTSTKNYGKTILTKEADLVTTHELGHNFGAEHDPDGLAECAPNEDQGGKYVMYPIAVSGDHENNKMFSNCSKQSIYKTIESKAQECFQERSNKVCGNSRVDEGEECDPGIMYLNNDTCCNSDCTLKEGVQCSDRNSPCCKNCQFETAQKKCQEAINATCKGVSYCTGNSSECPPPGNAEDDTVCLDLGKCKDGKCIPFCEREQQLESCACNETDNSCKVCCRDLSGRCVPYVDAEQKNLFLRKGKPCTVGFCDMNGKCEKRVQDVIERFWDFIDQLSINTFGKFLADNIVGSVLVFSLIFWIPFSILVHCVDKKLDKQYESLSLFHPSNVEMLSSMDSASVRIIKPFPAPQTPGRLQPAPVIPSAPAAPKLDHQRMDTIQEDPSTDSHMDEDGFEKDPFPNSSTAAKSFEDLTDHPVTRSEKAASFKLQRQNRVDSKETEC

[15] = biological target: T6, Disintegrin and metalloproteinase domain-containing protein 17; assay: ADAM17 protease inhibitors, dose response, counter-screen for ADAM10 exosite inhibitor project, biochemical, quenched FRET substrate (AID 743253)

Compound: O=C(Nc1nccs1)c1[nH]cnc1C(=O)N1CCc2ccccc2C1
- IC50 (cells [6]): > 29.9 µM (inactive)
- EC50 [7]: 0.858 µM (active)
- IC50 [8]: 4.95 µM (active)
- EC50 (cells [9]): > 29.9 µM (inactive)

Compound: Cc1cc(NC(=O)CSc2nnc(-c3ccoc3C)n2N)no1
- IC50 [10]: > 100 µM (active)

Compound: O=C(N[C@@H](Cc1cccnc1)C(=O)N1CCC[C@H]1C(=O)NCCc1ccccc1Cl)c1cccs1
- IC50 (cells [6]): > 29.9 µM (inactive)
- EC50 [7]: 8.12 µM (active)
- IC50 [8]: 14.4 µM (inactive)
- EC50 (cells [9]): > 29.9 µM (inactive)

Compound: Cc1ccc(S(=O)(=O)Nc2ccc3c(c2)C(=O)N([C@H](C)CO)C[C@@H](C)[C@H](CN(C)S(=O)(=O)c2ccc(C)cc2)OCCCC[C@H](C)O3)cc1
- AC50 (Paired box protein Pax-8): 9.07 µM (active)
- AC50 [12]: 51.4 µM (active)

Compound: Cc1ccsc1/C=N\Nc1cnnc(O)c1Cl
- IC50 (cells [6]): > 29.9 µM (inactive)
- EC50 [7]: 2.16 µM (active)
- IC50 [8]: 8.29 µM (active)
- EC50 (cells [9]): > 29.9 µM (inactive)

The next lines start with the values.

- EC50 [1]: > 260 µM (inactive)
- IC50 [2]: > 122 µM (inactive)
Compound: C=CCNC(=S)NNC(=O)c1cccn(Cc2ccc(Cl)c(Cl)c2)c1=O

- IC50 [3]: > 47.1 µM (inactive)
- EC50 [4]: > 53 µM (inactive)
- AC50 [5]: 21.4 µM (active)
Compound: CC(=O)c1cccc(Nc2cc(C)nc3c(C)cccc23)c1

- IC50 [11]: > 96.6 µM (inactive)
Compound: COc1cccc(CNc2nc(NCc3ccccc3)nc3ccsc23)c1

- IC50 [2]: > 122 µM (inactive)
Compound: CCN(CC)c1ccc(C=NNC(=O)c2cc(-c3ccc(C)c(C)c3)[nH]n2)c(O)c1

- IC50 [13]: > 69.5 µM (inactive)
- IC50 [14]: > 69.5 µM (inactive)
- IC50 [15]: > 69.5 µM (inactive)
Compound: Cc1ccccc1NC(C)C(=O)N/N=C/c1ccccc1OCc1cccc(Br)c1 (stereo not given)
